Laboratory results published in patent publication US20020173640A1, “ADAM polynucleotides, polypeptides, and antibodies” (Human Genome Sciences, Inc., priority 1999, published 2002).
Square brackets hold non-standard residues; d marks the D form. Peptide text beside a SMILES is read from it. * marks the point of attachment. 4Abz = Nc1ccc(C(=O)O)cc1; NHOH = ON*

Assays:
HIV = conditions: cited from earlier work
[1] = system: viruses containing the K103N mutation; conditions: cited from earlier work
hADAM-19 = biological target: T1, hADAM-19 (Homo sapiens, UniProt Q9H013); assay: Inhibition of α2-M cleavage by hADAM-19 (SDS-PAGE, silver staining); type: biochemical; conditions: for blockage of hADAM-19 proteolytic activity against α2-M: summary statement, concentration not given
T1 construct: made in house
T1 sequence (Q9H013 26-701 isoform Q9H013-2): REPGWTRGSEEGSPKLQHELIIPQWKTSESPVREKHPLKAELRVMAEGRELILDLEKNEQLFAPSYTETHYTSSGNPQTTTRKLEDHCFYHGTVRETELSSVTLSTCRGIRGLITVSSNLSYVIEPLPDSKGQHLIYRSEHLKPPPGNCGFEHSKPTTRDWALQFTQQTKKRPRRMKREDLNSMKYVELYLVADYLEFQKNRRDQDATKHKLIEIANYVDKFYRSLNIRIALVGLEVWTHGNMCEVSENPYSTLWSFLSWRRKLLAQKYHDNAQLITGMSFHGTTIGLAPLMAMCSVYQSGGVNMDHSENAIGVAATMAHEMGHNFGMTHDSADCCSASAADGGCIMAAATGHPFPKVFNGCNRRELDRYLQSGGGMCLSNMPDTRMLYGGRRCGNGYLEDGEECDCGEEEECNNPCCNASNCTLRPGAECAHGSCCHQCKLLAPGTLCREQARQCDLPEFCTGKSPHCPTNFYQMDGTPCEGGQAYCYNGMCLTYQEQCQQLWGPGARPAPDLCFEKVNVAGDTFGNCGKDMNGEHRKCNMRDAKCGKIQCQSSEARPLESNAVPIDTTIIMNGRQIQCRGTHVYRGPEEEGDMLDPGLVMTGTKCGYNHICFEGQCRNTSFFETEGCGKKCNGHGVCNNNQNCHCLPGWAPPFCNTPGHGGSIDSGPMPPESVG
Protocol: 20 mM EDTA, 20 rmiM EGTA, 10 mM HgCl2, 1 miM TIMP-1,-2 (TIMP: hADAM-19 molar ratio was 100:1) and three commercial (CALBIOCHEM) small molecule human MMP inhibitors were used to inhibit α2-M cleavage by hADAM-19. […] Briefly, different concentrations of those inhibitors were mixed with 7.5 μl of hADAM-19 (50 μg/ml) in 22.9 μl of 1× HEPES buffer (50 mM HEPES, pH 7.5, 0.2 M NaCl, 10 mM CaCl2, 25 μM ZnCl, and 0.05%Brij-35) and incubated at room temperature (24° C.) for 2-hr, then 7.1 μl of substrate α2-M (0.2 unit/ml) were added and incubated at 37° C. for 20-hr. The reactions were stopped by adding 4× sample bufer and boiled immediately for 5 minutes. After SDS-PAGE, the protein bands were visualized by silver staining.

MMP-1 = MMP-1 (Homo sapiens, UniProt P03956); conditions: commercial (CALBIOCHEM) inhibitor data; read-out: IC50 against MMP-1; cited from earlier work
MMP-8 = MMP-8 (Homo sapiens, UniProt P22894); conditions: commercial (CALBIOCHEM) inhibitor data; read-out: IC50 against MMP-8; cited from earlier work
MMP-9 = MMP-9 (Homo sapiens, UniProt P14780); conditions: commercial (CALBIOCHEM) inhibitor data; read-out: IC50 against MMP-9; cited from earlier work
MMP-3 = MMP-3 (Homo sapiens, UniProt P08254); conditions: commercial (CALBIOCHEM) inhibitor data; read-out: IC50 against MMP-3; cited from earlier work
MMP-3, sequence (P08254 100-477): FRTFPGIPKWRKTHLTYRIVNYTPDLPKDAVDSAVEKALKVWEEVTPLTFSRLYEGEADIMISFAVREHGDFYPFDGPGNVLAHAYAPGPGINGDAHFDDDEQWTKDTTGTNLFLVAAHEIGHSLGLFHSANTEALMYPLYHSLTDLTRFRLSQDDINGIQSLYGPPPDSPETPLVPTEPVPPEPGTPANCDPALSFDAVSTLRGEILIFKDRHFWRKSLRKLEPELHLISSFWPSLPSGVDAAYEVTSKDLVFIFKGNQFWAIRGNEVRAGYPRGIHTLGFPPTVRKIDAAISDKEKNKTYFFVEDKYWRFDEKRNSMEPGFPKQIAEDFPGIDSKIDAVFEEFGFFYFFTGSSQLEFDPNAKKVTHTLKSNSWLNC

MMP-8, sequence (P22894 101-467): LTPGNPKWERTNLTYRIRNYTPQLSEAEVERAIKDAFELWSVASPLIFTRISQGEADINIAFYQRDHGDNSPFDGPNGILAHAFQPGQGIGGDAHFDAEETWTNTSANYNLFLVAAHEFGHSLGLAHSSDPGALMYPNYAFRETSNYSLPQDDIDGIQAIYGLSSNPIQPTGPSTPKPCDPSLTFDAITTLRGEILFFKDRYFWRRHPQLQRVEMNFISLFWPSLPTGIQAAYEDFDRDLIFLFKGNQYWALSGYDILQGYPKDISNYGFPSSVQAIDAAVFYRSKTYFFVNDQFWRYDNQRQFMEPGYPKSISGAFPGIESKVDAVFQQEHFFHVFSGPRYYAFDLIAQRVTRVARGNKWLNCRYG
MMP-9, sequence (P14780 94-707): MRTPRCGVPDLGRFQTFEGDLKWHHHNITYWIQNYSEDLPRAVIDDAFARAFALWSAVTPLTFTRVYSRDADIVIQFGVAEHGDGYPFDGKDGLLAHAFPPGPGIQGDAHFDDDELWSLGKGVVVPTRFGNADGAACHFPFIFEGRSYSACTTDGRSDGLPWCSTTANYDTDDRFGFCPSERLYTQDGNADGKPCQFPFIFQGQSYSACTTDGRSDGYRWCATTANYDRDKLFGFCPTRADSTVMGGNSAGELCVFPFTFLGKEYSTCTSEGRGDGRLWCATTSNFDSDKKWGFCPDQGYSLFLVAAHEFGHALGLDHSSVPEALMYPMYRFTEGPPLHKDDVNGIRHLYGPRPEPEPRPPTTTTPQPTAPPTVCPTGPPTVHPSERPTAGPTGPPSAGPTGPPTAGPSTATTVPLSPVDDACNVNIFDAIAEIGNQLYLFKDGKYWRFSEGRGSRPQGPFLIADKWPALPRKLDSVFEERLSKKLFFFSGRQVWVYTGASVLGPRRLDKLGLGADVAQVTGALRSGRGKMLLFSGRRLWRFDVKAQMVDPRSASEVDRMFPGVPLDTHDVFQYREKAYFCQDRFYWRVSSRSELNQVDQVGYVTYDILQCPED
MMP-1, sequence (P03956 100-469): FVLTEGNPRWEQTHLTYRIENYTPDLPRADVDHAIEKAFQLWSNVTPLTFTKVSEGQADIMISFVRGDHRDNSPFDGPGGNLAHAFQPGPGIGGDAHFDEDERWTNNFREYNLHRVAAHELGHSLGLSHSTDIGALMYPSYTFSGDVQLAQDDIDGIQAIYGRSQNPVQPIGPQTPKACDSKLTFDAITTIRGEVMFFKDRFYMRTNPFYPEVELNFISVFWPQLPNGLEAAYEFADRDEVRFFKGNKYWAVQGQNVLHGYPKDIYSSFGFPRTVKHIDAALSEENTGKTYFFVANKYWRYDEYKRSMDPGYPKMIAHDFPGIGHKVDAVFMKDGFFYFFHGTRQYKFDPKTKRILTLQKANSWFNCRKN

SMILES: CC[C@H]1C(=O)Nc2ccc(F)cc2N1C(=O)OC(C)C [GW-420867X]
- activity relative to HBY097 (HIV; greater activity than HBY097): 25 fold
- activity against K103N mutants [1]: active against K103N mutants

SMILES: CC(C)C[C@@H](NC(=O)[C@@H]1CCCN1C(=O)CNC(=O)c1ccc(N)cc1)C(=O)N[C@H](C)C(=O)NO [MMP inhibitor I] (H-[4Abz]GP[dL][dA]-{NHOH})
- blockage of hADAM-19 digestion of α2-M (hADAM-19; 1 mM inhibitor): did not block
- IC50 (MMP-1): 1 µM
- IC50 (MMP-8): 1 µM
- IC50 (MMP-9): 30 µM
- IC50 (MMP-3): 150 µM

SMILES: O=C(O)CN(CCOCCOCCN(CC(=O)O)CC(=O)O)CC(=O)O [EGTA]
- blockage of hADAM-19 digestion of α2-M (hADAM-19; 20 mM inhibitor): completely blocked
- blockage of hADAM-19 proteolytic activity against α2-M (hADAM-19): blocked completely

SMILES: c1cnc2c(c1)ccc1cccnc12 [1,10-phenathroline]
- blockage of hADAM-19 proteolytic activity against α2-M (hADAM-19): blocked completely

SMILES: Nc1nc(=O)n([C@@H]2CS[C@H](CO)O2)cc1F [COVIRACIL, emtricitabine]
- activity in vitro relative to lamivudine (3TC) (HIV; greater activity than lamivudine (3TC)): 3- to 10 fold

SMILES: [Cl][Hg][Cl] [HgCl2]
- blockage of hADAM-19 digestion of α2-M (hADAM-19; 10 mM inhibitor): completely blocked
- blockage of hADAM-19 proteolytic activity against α2-M (hADAM-19): blocked completely
